The values that follow come from PMC4579271, “Inflammatory Signaling by NOD-RIPK2 Is Inhibited by Clinically Relevant Type II Kinase Inhibitors” (Chemistry & Biology, 2015).

Molecules are shown by their SMILES.

This assay concerns LPS and Pam3CSK4 responses in RAW264.7 cells. Kind of assay: qRT-PCR of Toll-like receptor-dependent inflammatory gene expression in RAW264.7 cells (LPS, Pam3CSK4). The class given is cell-based, mouse. To be noted: 100 nM. As to the method: Figure 6 Inhibition of NOD-Dependent Inflammatory Gene Expression in RAW264.7 Cells (A and B) Cells were pre-treated with 1, 10, or 100 nM inhibitors for 30 min and stimulated with 10 μg/ml MDP (A) or Tri-DAP (B) for 18–24 hr in triplicate. RNA samples were isolated and changes in gene expression were analyzed using gene-specific primers using SYBR qRT-PCR. All values were normalized to the levels of GAPDH. (C and D) Lack of inhibition of Toll-like receptor-dependent inflammatory gene expression in RAW264.7 cells. Experiments were performed as described above, except cells were stimulated with 10 ng/ml E. coli LPS (C) or 500 ng/ml Pam3CSK4 (D). All experiments were performed in triplicate; error bars indicate SD values.
40C centrifuge at 14,000 rpm for 15 min to collect lysates. Protein concentrations were measured using […] protein assay reagent (Pierce). […]
For ADPGlo (Promega) assays, 1 ng Abl or 10 ng of RIPK2 was diluted in reaction buff er (40 mM Tris-HCl pH 7.5, 20 mM MgCl2, 0.5 m M DTT, 0.01% BSA) supplemented with 50 µM ATP and 10-point dose range of inhibitors. […] Luminescent signal was generated by addition of 10 µL of kinase detection reagent for 30 minutes at room temperature and determined using Victor3V platereader (Perkin Elmer). Specific signal was calculated by subtracting values in the wells without protein and inhibitor from the values in the test wells. […]
(In general: Real-time PCR tracks product formation cycle by cycle.)

As to `Cc1ccc(C(=O)Nc2ccc(CN3CCN(C)CC3)c(C(F)(F)F)c2)cc1C#Cc1cnc2cccnn12` [ponatinib, 3-[2-(imidazo[1,2-b]pyridazin-3-yl)ethynyl]-4-methyl-N-{4-[(4-methylpiperazin-1-yl)methyl]-3-(trifluoromethyl)phenyl}benzamide], the “LPS and Pam3CSK4 responses” value is given as “partially attenuated”.
